In patent publication US5187168A, “Substituted quinazolines as angiotensin II antagonists” (American Home Products Corporation, priority 1991, dated 1993):

Tested on: A II-infused rat
Assay: A II-infused rat model (ganglion-blocked, intraduodenal dosing), antihypertensive action
Assay type: in vivo
Settings: 10 mg/kg id, one half hour post-administration
Protocol: In accordance with their ability to antagonize angiotensin II, the compounds of this invention show antihypertensive action in the following A II-infused rat model. Rats are anesthetized with Dial-Urethane (0.60 mL/kg, ip) and the trachea cannulated with PE 240. Either one femoral artery and both femoral veins or the carotid artery and the corresponding jugular vein are cannulated with PE 50. If the jugular vein is cannulated, two cannulas are placed in the one vein. The initial portion of the duodenum (just distal to the stomach) is cannulated with PE 50 via a small midline incision. Arterial pressure and heart rate are measured from the arterial cannula. Ten to 15 min are allowed following surgery for stabilization of arterial pressure. Ganglion blockade is then produced by intravenous administration of mecamylamine at 3 mg/kg (1 mL/kg of a 3 mg/mL solution). Ganglion blockade causes a fall in arterial pressure of about 50 mmHg. Mecamylamine is given every 90 min throughout the remainder of the experiment. An A II infusion is then begun into the other venous cannula at […] (at 9.6 uLmin). The A II infusion returns arterial pressure to or slightly above the control level. Once arterial pressure has stabilized with the A II infusion, baseline values for mean arterial pressure (MAP) and heart rate are taken. […]

O=C(O)c1ccccc1-c1ccc(CNc2nc(C(F)(F)F)nc3ccsc23)cc1 [Example 36]
lowering of the A II dependent blood pressure (average): 45%
